Read-outs that look alike come from different tables or passages of the source.
Legend:
[1] = tested on: Ctenocephalides felis (flea), Ixodidae (tick), and Aedes aegypti (mosquito); test: Bio-profiling of C1 racemate and enantiomers, overall conclusions of contact and ingestion assays
Description: 1-[6-[5-(3,5-dichloro-4-fluoro-phenyl)-5-(trifluoromethyl)-4H-isothiazol-3-yl]spiro[1H-isobenzofuran-3,3′-azetidine]-1′-yl]-3,3,3-trifluoro-propan-1-one (referred to herein as C1 racemate) is an isothiazoline compound consisting of two isomers: (R)-1-[6-[5-(3,5-dichloro-4-fluoro-phenyl)-5-(trifluoromethyl)-4H-isothiazol-3-yl]spiro[1H-isobenzofuran-3,3′-azetidine]-1′-yl]-3,3,3-trifluoro-propan-1-one (referred herein as C1 (R) enantiomer) and (S)-1-[6-[5-(3,5-dichloro-4-fluoro-phenyl)-5-(trifluoromethyl)-4H-isothiazol-3-yl]spiro[1H-isobenzofuran-3,3′-azetidine]-1′-yl]-3,3,3-trifluoro-propan-1-one (referred to herein as C1 (S) enantiomer). The racemic compound and the two enantiomers were tested against adult stages of Ctenocephalides felis (flea) Ixodidae (tick), and Aedes aegypti (mosquito). The compounds were solubilized in DMSO or an acetone/triton solution and dose response curves were generated for the individual compounds.
For evaluation of contact activity, coated-substrate (flea) and coated-vial (tick and mosquito) assay procedures were used. For evaluation of flea ingestion activity, an artificial feeding assay procedure was used. Insecticidal activity was evaluated at various time-points for each assay. Dose response curves were generated in duplicate on three independent test occasions (Trial 1-Trial 3) and EC50 and EC90 values were calculated.
Therefore, mortality correction was not performed in the assays. Calculation of EC50 and EC90 values was performed using XLfit. Both EC50 and EC90 values were calculated using the average of the two replicates for each Trial.
The C1 (R) enantiomer, C1 (S) enantiomer, and the C1 racemate were successfully evaluated against flea, tick, and mosquito contact and ingestion in vitro screening assays.

Aedes aegypti = test: In vitro contact activity against adult mosquitoes (coated vial)
Method: Aedes aegypti (Louisiana Biologicals Inc., New Orleans, La.) eggs were allowed to hatch, close, and age between 3-5 days in an environmental chamber at 26° C., 80% humidity with light/dark cycles.
For mosquito assays, an aliquot from each compound stock was added to an acetone/triton solution to achieve the desired top doses for the study. Serial dilutions were conducted from the top dose (i.e. 50 ppm) to achieve the desired titration range for EC50 and EC90 determination. The final DMSO concentration in each test vial was 0.5%. A 459 μL aliquot of each compound formulation was transferred to a vial and vials were immediately placed on an unheated roller unit to allow for an even coating of the vial walls. The vials were loosely capped and allowed to dry for a minimum of four hours in a chemical fume hood.
For both contact and ingestion assays, five female Aedes aegypti adults were added to each vial or cage. The test vials for contact assays were held in an environmental chamber at 24° C., 80% humidity with light/dark cycles (12 hours each). The cages for mosquito ingestion assays were held in a temperature-controlled artificial feeding apparatus to allow continual access to organic bovine blood containing the desired concentration of compound. Fresh aliquots of compound-spiked bovine blood were provided daily for the duration of the study.
Mosquitoes showing no movement or mosquitoes that were knocked down were noted as dead. Results from trial 1 and trial 2 contact assays are shown in Tables 12 and 13, respectively and the results from trial 3 mosquito ingestion assay is shown in table 14.
For the mosquito contact and ingestion assays, each replicate contained 5 mosquitoes. For ease of calculation, the two replicates were added to equal a total of 10 mosquitoes.

For `O=C(CC(F)(F)F)N1CC2(C1)OCc1cc(C3=NS[C@@](c4cc(Cl)c(F)c(Cl)c4)(C(F)(F)F)C3)ccc12` [C1 (S) enantiomer, (S)-1-[6-[5-(3,5-dichloro-4-fluoro-phenyl)-5-(trifluoromethyl)-4H-isothiazol-3-yl]spiro[1H-isobenzofuran-3,3′-azetidine]-1′-yl]-3,3,3-trifluoro-propan-1-one], the “potency against ticks” value ([1]; adult ticks, contact assays) was “excellent potency against ticks”, the “which enantiomer carries the biological activity of the C1 racemate” value ([1]; flea, tick and mosquito contact and ingestion assays, Trials 1-3) was “primarily be associated with the C1 (S) enantiomer” and the mortality at 0.049 µM (Aedes aegypti; 0.5 h, read-out: % Mortality R1 + R2, Trial 1, contact assay, dose 0.049 μM, 0.5 Hr) was 0%. For the same molecule, the mortality at 0.2 µM (Aedes aegypti; 0.5 h, read-out: % Mortality R1 + R2, Trial 1, contact assay, dose 0.20 μM, 0.5 Hr) was 0%, the mortality at 0.78 µM (Aedes aegypti; 0.5 h, read-out: % Mortality R1 + R2, Trial 1, contact assay, dose 0.78 μM, 0.5 Hr) was 0% and the mortality at 3.125 µM (Aedes aegypti; 0.5 h, read-out: % Mortality R1 + R2, Trial 1, contact assay, dose 3.125 μM, 0.5 Hr) was 0%. For the same molecule, the mortality at 12.5 µM (Aedes aegypti; 0.5 h, read-out: % Mortality R1 + R2, Trial 1, contact assay, dose 12.5 μM, 0.5 Hr) was 0%, the mortality at 50 µM (Aedes aegypti; 0.5 h, read-out: % Mortality R1 + R2, Trial 1, contact assay, dose 50 μM, 0.5 Hr) was 0% and the mortality at 0.049 µM (Aedes aegypti; 0.5 h, read-out: % Mortality R1 + R2, Trial 2, contact assay, dose 0.049 μM, 0.5 Hr) was 0%. The mortality at 0.2 µM (Aedes aegypti; 0.5 h, read-out: % Mortality R1 + R2, Trial 2, contact assay, dose 0.20 μM, 0.5 Hr) was 0%, the mortality at 0.78 µM (Aedes aegypti; 0.5 h, read-out: % Mortality R1 + R2, Trial 2, contact assay, dose 0.78 μM, 0.5 Hr) was 0% and the mortality at 3.125 µM (Aedes aegypti; 0.5 h, read-out: % Mortality R1 + R2, Trial 2, contact assay, dose 3.125 μM, 0.5 Hr) was 0%. For the same molecule, the mortality at 12.5 µM (Aedes aegypti; 0.5 h, read-out: % Mortality R1 + R2, Trial 2, contact assay, dose 12.5 μM, 0.5 Hr) was 0%, the mortality at 50 µM (Aedes aegypti; 0.5 h, read-out: % Mortality R1 + R2, Trial 2, contact assay, dose 50 μM, 0.5 Hr) was 0% and the mortality at 0.049 µM (Aedes aegypti; 1 h, read-out: % Mortality R1 + R2, Trial 1, contact assay, dose 0.049 μM, 1 hr) was 0%. For the same molecule, the mortality at 0.2 µM (Aedes aegypti; 1 h, read-out: % Mortality R1 + R2, Trial 1, contact assay, dose 0.20 μM, 1 hr) was 0%, the mortality at 0.78 µM (Aedes aegypti; 1 h, read-out: % Mortality R1 + R2, Trial 1, contact assay, dose 0.78 μM, 1 hr) was 0% and the mortality at 3.125 µM (Aedes aegypti; 1 h, read-out: % Mortality R1 + R2, Trial 1, contact assay, dose 3.125 μM, 1 hr) was 0%. It also gave a mortality at 12.5 µM (Aedes aegypti; 1 h, read-out: % Mortality R1 + R2, Trial 1, contact assay, dose 12.5 μM, 1 hr) of 0%, a mortality at 50 µM (Aedes aegypti; 1 h, read-out: % Mortality R1 + R2, Trial 1, contact assay, dose 50 μM, 1 hr) of 0% and a mortality at 0.049 µM (Aedes aegypti; 1 h, read-out: % Mortality R1 + R2, Trial 2, contact assay, dose 0.049 μM, 1 hr) of 0%. For the same molecule, the mortality at 0.2 µM (Aedes aegypti; 1 h, read-out: % Mortality R1 + R2, Trial 2, contact assay, dose 0.20 μM, 1 hr) was 0%, the mortality at 0.78 µM (Aedes aegypti; 1 h, read-out: % Mortality R1 + R2, Trial 2, contact assay, dose 0.78 μM, 1 hr) was 0% and the mortality at 3.125 µM (Aedes aegypti; 1 h, read-out: % Mortality R1 + R2, Trial 2, contact assay, dose 3.125 μM, 1 hr) was 0%. It also gave a mortality at 12.5 µM (Aedes aegypti; 1 h, read-out: % Mortality R1 + R2, Trial 2, contact assay, dose 12.5 μM, 1 hr) of 0%, a mortality at 50 µM (Aedes aegypti; 1 h, read-out: % Mortality R1 + R2, Trial 2, contact assay, dose 50 μM, 1 hr) of 0% and a mortality at 0.049 µM (Aedes aegypti; 6 h, read-out: % Mortality R1 + R2, Trial 1, contact assay, dose 0.049 μM, 6 hr) of 0%. It also gave a mortality at 0.2 µM (Aedes aegypti; 6 h, read-out: % Mortality R1 + R2, Trial 1, contact assay, dose 0.20 μM, 6 hr) of 0%, a mortality at 0.78 µM (Aedes aegypti; 6 h, read-out: % Mortality R1 + R2, Trial 1, contact assay, dose 0.78 μM, 6 hr) of 0% and a mortality at 3.125 µM (Aedes aegypti; 6 h, read-out: % Mortality R1 + R2, Trial 1, contact assay, dose 3.125 μM, 6 hr) of 0%. For the same molecule, the mortality at 12.5 µM (Aedes aegypti; 6 h, read-out: % Mortality R1 + R2, Trial 1, contact assay, dose 12.5 μM, 6 hr) was 30%, the mortality at 50 µM (Aedes aegypti; 6 h, read-out: % Mortality R1 + R2, Trial 1, contact assay, dose 50 μM, 6 hr) was 100% and the mortality at 0.049 µM (Aedes aegypti; 6 h, read-out: % Mortality R1 + R2, Trial 2, contact assay, dose 0.049 μM, 6 hr) was 0%. The mortality at 0.2 µM (Aedes aegypti; 6 h, read-out: % Mortality R1 + R2, Trial 2, contact assay, dose 0.20 μM, 6 hr) was 0%, the mortality at 0.78 µM (Aedes aegypti; 6 h, read-out: % Mortality R1 + R2, Trial 2, contact assay, dose 0.78 μM, 6 hr) was 0% and the mortality at 3.125 µM (Aedes aegypti; 6 h, read-out: % Mortality R1 + R2, Trial 2, contact assay, dose 3.125 μM, 6 hr) was 0%. It also gave a mortality at 12.5 µM (Aedes aegypti; 6 h, read-out: % Mortality R1 + R2, Trial 2, contact assay, dose 12.5 μM, 6 hr) of 10%.

Reference: patent US10807992B2, “Single enantiomer antiparasitic compounds” (priority 2017, dated 2020)
